Results reported in patent publication US9481667B2, “Salts and solid forms of isoquinolinones and composition comprising and methods of using the same” (Infinity Pharmaceuticals, Inc., priority 2013, dated 2016).
Converted amounts (≈) assume the structure as drawn. Where a name gives a salt, the structure may show the parent alone. One block for each compound: values may come before it.

Tests used:
Assay type in all cases: physicochemical
[1] = Stability on standing at ambient/room conditions
Excerpt: The bis-sulfuric acid salt is difficult to crystallise in an anhydrous environment. The experiment in methanol produced a clear solution, which then became an oil after solvent evaporation.

[2] = Thermodynamic aqueous solubility; details: aqueous, thermodynamic from solid
[3] = Storage at 40° C./75% RH (solid-state stability); details: for Stability on storage at 40° C./75% RH: 1 week, solid form by XRPD
Procedure: The crystalline solids were filtered, dried at ambient conditions, and stored at 40° C./75% RH for 1 week and analyzed by ^1H NMR/IC.
Samples from the screen using amorphous free base Compound 1 were analysed by ^1H-NMR and DSC, and re-analysis by XRPD was also carried out after drying at 50° C./vacuum and storage at 40° C./75% RH (the same sample was dried and stored at elevated humidity).

[4] = Storage at 25° C./93% RH (solid-state stability); details: for Stability on storage at 25° C./93% RH: 1 week, solid form by XRPD
[5] = Free base solubility assessment in solvents
Procedure: Approximately 11 mg (0.022 mmol) portions of the free base Form 1 of Compound 1 (i.e., the compound of formula (I)) were weighed into 2 ml screw-topped HPLC vials. One of 15 solvents was added to each vial in a number of aliquots (up to 100 volumes), with shaking and if necessary with heating to 40° C., in an attempt to achieve dissolution.

[6] = Gravimetric vapour sorption (GVS)
Procedure: Sorption isotherms were obtained using a Hiden IGASorp moisture sorption analyser, controlled by CFRSorp software. The sample temperature was maintained at 25° C. by a Huber re-circulating water bath. The humidity was controlled by mixing streams of dry and wet nitrogen, with a total flow rate of 250 ml/min. The relative humidity (RH) was measured by a calibrated Vaisala RH probe (dynamic range of 0-95% RH), located near the sample. The weight change, (mass relaxation) of the sample as a function of % RH was constantly monitored by the microbalance (accuracy ±0.001 mg). Typically 10-20 mg of sample was placed in a tared mesh stainless steel basket under ambient conditions. The sample was loaded and unloaded at 40% RH and 25° C. (typical room conditions). A moisture sorption isotherm was performed as outlined below (2 scans giving 1 complete cycle). The standard isotherm was performed at 25° C. at 10% RH intervals over a 0-90% RH range.
The software uses a least squares minimisation procedure together with a model of the mass relaxation, to predict an asymptotic value. The measured mass relaxation value must be within 5% of that predicted by the software, before the next % RH value is selected. The minimum equilibration time was set to 1 hour and the maximum to 4 hours. The sample was recovered after completion of the isotherm and re-analysed by XRPD.

[7] = listed as Compound 1 Free Base Form 1
[8] = listed as amorphous free base Compound 1

Storage 40° C./75% RH for 1 week: HPLC Purity ([3]; 0.5 g scale-up salts): HPLC Purity: Unchanged | Storage 40° C./75% RH for 1 week: XRPD (D8) ([3]; 0.5 g scale-up salts): XRPD (D8): Unchanged | Stability on storage at 40° C./75% RH [3]: stable | Stability on storage at 40° C./75% RH ([3]; listed as mono-1,2-ethanedisulfonic acid salt): stable | Storage 25° C./93% RH for 1 week: HPLC Purity ([4]; 0.5 g scale-up salts): HPLC Purity: Unchanged | Storage 25° C./93% RH for 1 week: XRPD (D8) ([4]; 0.5 g scale-up salts): XRPD (D8): Unchanged | XRPD post GVS (C2) ([6]; 0.5 g scale-up salts): Unchanged | GVS Single cycle ([6]; hygroscopicity, 25° C., 0-90% RH): Moderately hygroscopic
SMILES: COc1cc(-c2cccc3cc([C@H](C)Nc4nc(N)ncc4C#N)n(-c4ccccc4)c(=O)c23)ccn1 [Form 1 of the 1,2-ethanedisulfonic acid salt of Compound 1] [(S)-2-amino-4-((1-(8-(2-methoxypyridin-4-yl)-1-oxo-2-phenyl-1,2-dihydroisoquinolin-3-yl)ethyl)amino)pyrimidine-5-carbonitrile]

Stability on storage at 40° C./75% RH [3]: stable | Stability on storage at 40° C./75% RH [3, 7]: No changes in form after 1 week | Stability on storage at 40° C./75% RH ([3]; listed as Free base Form 1): did not show any changes | Stability on storage at 25° C./93% RH [4]: converts to Form 3 | Stability on storage at 25° C./93% RH [4, 7]: Conversion to Form 3 (FIG. 31) | Stability on storage at 25° C./93% RH ([4]; listed as Free base Form 1): conversion to Form 3 | RH range in which hydration to Form 3 occurs [6]: 80-90 % RH | GVS: moisture on loading ([6]; loaded at 40% RH, 25° C., listed as Compound 1 Free Base Form 1): 0.7 % w/w | solubility thermodynamic ([2]; water, at pH 6.85): 4 µg/mL (≈ 8.17 µM)
SMILES: COc1cc(-c2cccc3cc([C@H](C)Nc4nc(N)ncc4C#N)n(-c4ccccc4)c(=O)c23)ccn1 [Form 1 of the free base of Compound 1, (S)-2-amino-4-((1-(8-(2-methoxypyridin-4-yl)-1-oxo-2-phenyl-1,2-dihydroisoquinolin-3-yl)ethyl)amino)pyrimidine-5-carbonitrile]
GVS: form change with humidity ([6]; above 80% RH, listed as Free base Form 1): hydrates to a higher hydrate above 80% RH, but this re-converts to Form 1 on desorption

Stability on storage at 40° C./75% RH [3, 8]: No changes after 1 week | Storage at elevated humidity ([3]; elevated humidity conditions, solid form): No crystallisation | Stability on storage at 25° C./93% RH [4, 8]: No changes after 1 week
SMILES: COc1cc(-c2cccc3cc([C@H](C)Nc4nc(N)ncc4C#N)n(-c4ccccc4)c(=O)c23)ccn1 [amorphous free base of Compound 1, (S)-2-amino-4-((1-(8-(2-methoxypyridin-4-yl)-1-oxo-2-phenyl-1,2-dihydroisoquinolin-3-yl)ethyl)amino)pyrimidine-5-carbonitrile]

Second part, the compound before the results:

SMILES: COc1cc(-c2cccc3cc([C@H](C)Nc4nc(N)ncc4C#N)n(-c4ccccc4)c(=O)c23)ccn1 [(S)-2-amino-4-((1-(8-(2-methoxypyridin-4-yl)-1-oxo-2-phenyl-1,2-dihydroisoquinolin-3-yl)ethyl)amino)pyrimidine-5-carbonitrile]
Crystallinity after standing ([1]; RT, 24 hours): decreases | Stability at ambient conditions ([1]; converts to Form 1 by hydration): unstable | solubility thermodynamic ([2]; pH 1.9, water, 0.5 g scale-up salts, pH of solution reported separately): 1900 µg/mL

SMILES: CC(=O)O.COc1cc(-c2cccc3cc([C@H](C)Nc4nc(N)ncc4C#N)n(-c4ccccc4)c(=O)c23)ccn1.COc1cc(-c2cccc3cc([C@H](C)Nc4nc(N)ncc4C#N)n(-c4ccccc4)c(=O)c23)ccn1 [Batch 2 of Form 6]
Stability at 40° C./75% RH ([3]; after 1 week): Very slight changes | Stability at 25° C./93% RH ([4]; after 1 week): Very slight changes

SMILES: COc1cc(-c2cccc3cc([C@H](C)Nc4nc(N)ncc4C#N)n(-c4ccccc4)c(=O)c23)ccn1 [Compound 1, (S)-2-amino-4-((1-(8-(2-methoxypyridin-4-yl)-1-oxo-2-phenyl-1,2-dihydroisoquinolin-3-yl)ethyl)amino)pyrimidine-5-carbonitrile]
solvent volumes to dissolve ([5]; 2-MeTHF, free base Form 1, shaking, if necessary heating to 40° C.): 50 vol. | solvent volumes to dissolve ([5]; DMSO, free base Form 1, shaking, if necessary heating to 40° C.): 5 vol. | solvent volumes to dissolve ([5]; EtOAC, free base Form 1, did not dissolve in up to 100 vol.): > 100 vol. | solvent volumes to dissolve ([5]; EtOH/H2O, free base Form 1, did not dissolve in up to 100 vol.): > 100 vol. | solvent volumes to dissolve ([5]; EtOH, free base Form 1, did not dissolve in up to 100 vol.): > 100 vol. | solvent volumes to dissolve ([5]; H2O, free base Form 1, did not dissolve in up to 100 vol.): > 100 vol. | solvent volumes to dissolve ([5]; MIBK, free base Form 1, shaking, if necessary heating to 40° C.): 40 vol. | solvent volumes to dissolve ([5]; MeOH/anisole (50/50 v/v), free base Form 1, shaking, if necessary heating to 40° C.): 10 vol. | solvent volumes to dissolve ([5]; MeOH, free base Form 1, shaking, if necessary heating to 40° C.): 75 vol. | solvent volumes to dissolve ([5]; TBME, free base Form 1, did not dissolve in up to 100 vol.): > 100 vol. | solvent volumes to dissolve ([5]; THF, free base Form 1, shaking, if necessary heating to 40° C.): 40 vol. | solvent volumes to dissolve ([5]; acetone, free base Form 1, did not dissolve in up to 100 vol.): > 100 vol. | solvent volumes to dissolve ([5]; acetonitrile, free base Form 1, did not dissolve in up to 100 vol.): > 100 vol. | solvent volumes to dissolve ([5]; anisole, free base Form 1, did not dissolve in up to 100 vol.): > 100 vol. | solvent volumes to dissolve ([5]; chloroform, free base Form 1, shaking, if necessary heating to 40° C.): 40 vol.
